Source: patent US12605347B2, “Solid dispersion of ursolic acid and potassium salt” (Indena S.P.A., priority 2019, dated 2026)
Counter-ions that a name gives are not always drawn. Like-named read-outs stand apart in the source and are kept apart here.

How the values were obtained:
[1] = low solubility-low permeability; cited from earlier work
[2] = physchem; settings: 25 °C, thermodynamic from solid
Experimental: (§1) Analysis of the solid dispersions and the measure of the solubility in simulated gastrointestinal fluids were performed by HPLC with the instrument and conditions reported below.
(§2) Stirring was stopped and any undissolved solid was let to decant. The supernatant was filtered through a hydrophilic 0.2 μm PTFA filter and analyzed for the content of ursolic acid.
(§3) The same procedure as Test 1 was followed, using 100 mg of ursolic acid instead of the dispersion of example 1.
(§4) The same procedure as Test 1 was followed, using 100 mg ursolic acid potassium salt instead of the dispersion of example 1.

[3] = Dissolution test: solubility in simulated gastrointestinal fluids, ursolic acid in the supernatant by HPLC; settings: FaSSGF pH = 1.6; stirred 2 hours at 25° C., supernatant filtered 0.2 μm
Experimental: as §1, §2, §3, §4

Molecule | Ursolic acid in solution (pH 1.6) | Ursolic acid in solution (pH 5) [mg/mL] | Ursolic acid in solution (pH 6.5) [mg/mL] | class according to the biopharmaceutical classification system (BCS) [1] | solubility thermodynamic at 2 h ([2]; FaSSIF (simulated gastrointestinal fluid), pH 6.5, fassif) [µg/mL] | solubility thermodynamic at 2 h ([2]; FeSSIF (simulated gastrointestinal fluid), pH 5, fessif) [µg/mL] | Ursolic acid in solution [3]
3β-hydroxy-urs-12-en-28-oic acid [ursolic acid] | <LOD* | 0.083 | 0.032 | class IV | – | – | –
C[C@H]1[C@H](C)CC[C@]2(C(=O)O)CC[C@]3(C)C(=CC[C@@H]4[C@@]5(C)CC[C@H](O)C(C)(C)[C@@H]5CC[C@]43C)[C@H]12 [ursolic acid potassium salt] | – | – | – | – | 154 | 318 | <LOD*
